Tested on: Control cells (no T1R1/T1R3)
Test: Calcium-based receptor assay in control cells not expressing the receptor
Format: cell-based, human
Details: change in fluorescence (ΔF)
Excerpt: We developed a unique functional umami receptor assay to evaluate and quantify umami in tomato and other crude plant or food extracts using the BRET technique: to test the principle we used the donor and acceptor proteins relating to BRET-2. In short, the human T1R1 and T1R3 taste receptors were cloned and fused with Renilla luciferase (Rluc) as donor protein; green fluorescent protein-2 (GFP2) served as acceptor protein and was fused to β-arrestin-2. Both constructs were transfected into a HEK293 cell line cells) for heterologous expression of the proteins. Various mammalian cell lines have been reported to be highly suitable for expression of receptors or other proteins, with HEK293 (human embryonic kidney) cells and CHO (Chinese hamster ovary) cells being some of the most versatile and suitable ones^12. Similarly, GPCRs can be expressed in various ways as described in multiple publications, such as transient^6, 8, 13-15 or stable (constitutive or inducible)^6, 9, 16, 17 expression, depending on the nature of the experiment, the respective receptor or the available time. Upon receptor stimulation with an agonist or crude extracts, the β-arrestin-2/GFP-2 protein interacts with the activated receptor thus bringing GFP-2 in close proximity with luciferase, making energy transfer between these two proteins possible and generating a BRET signal. In the presence of oxygen the luciferase catalyses the transformation of the substrate DeepBlueC into coelenteramide, which can be measured at 395-410 nm. If GFP-2 is in close proximity to the luciferase and energy transfer takes place, the emission will shift to 510 nm; this is referred to as the BRET signal and is expressed as ratio between the acceptor (GFP-2) and the donor (Renilla luciferase). The following experiments are designed to illustrate that conventional calcium-based functional receptor assays are not suitable for measuring the effects of crude extracts; in contrast, the BRET assay (as indicated here with umami) can clearly measure specific receptor responses using crude natural extracts. Moreover, the assay is also sensitive enough for detecting differences of receptor activation between the different tomato samples. Materials & Methods: Chemicals and Media: Fluo-4 AM was from Molecular Probes (# F-14202, prepared as 5 mM stock in DMSO), DMEM (with 4.5 g/l glucose and ultraglutamine, # BE12-604F) was from Lonza, trypsin-EDTA, Lipofectamine 2000, OptiMem and FCS were obtained from Life Technologies Invitrogen. Monosodium glutamate (MSG), Inosine 5′-monophosphate as well as all other chemicals were from Sigma-Aldrich. The plasmid encoding GFP2-β-arrestin-2 was purchased from BioSignal Packard (#6310176). Coelenterazine 400A (a DeepBlueC derivative) and Coelenterazine-H were from VWR International (# BTIU10125-1 and 233903-50, respectively). All other cell culture supplies were from Greiner BioOne. Receptor Fusion Constructs, Cell Lines, and Media: The human T1R1 and human T1R3 umami receptors were fused at their C-terminal in frame to Renilla Luciferase (Rluc) using standard molecular cloning techniques and the codon-humanized pRluc-N3 vector from PerkinElmer (#6310220). For expression of the umami receptors and the construct encoding GFP-2/β-arrestin-2, HEK293 cells (human embryonic kidney cells, ATCC) were used using traditional transfection methods (see also below). HEK293 cells were maintained in DMEM and 10% FBS at 37° C./5% CO2. Tomato Extracts: The tomato extracts which served as representative natural, complex test material were prepared as follows: Frozen tomato samples (in −80° C.) were weighed and dissolved in an equal amount of water. After the seeds and locular tissues (pulp) were removed and put aside, the tomato pericarp (flesh) was ground using a mortar and pestle. The seeds and pulp were then added back to the mixture ensuring that they are well mixed and the seeds were not crushed. […]

In the case of `N[C@@H](CCC(=O)O)C(=O)[O-].[Na+]` [MSG, Monosodium glutamate], the “release of intracellular calcium, Control cells (no T1R1/T1R3), average” value (100 μM MSG) is reported as 1135, the “release of intracellular calcium, Control cells (no T1R1/T1R3), meas. 1” value (100 μM MSG) is reported as 1102 and the “release of intracellular calcium, Control cells (no T1R1/T1R3), meas. 2” value (100 μM MSG) is reported as 1168. For the same compound, the “release of intracellular calcium, Control cells (no T1R1/T1R3), average” value (1 mM MSG) was 1060, the “release of intracellular calcium, Control cells (no T1R1/T1R3), meas. 1” value (1 mM MSG) was 1100 and the “release of intracellular calcium, Control cells (no T1R1/T1R3), meas. 2” value (1 mM MSG) was 1020. The “release of intracellular calcium, Control cells (no T1R1/T1R3), average” value (10 mM MSG) was 1115, the “release of intracellular calcium, Control cells (no T1R1/T1R3), meas. 1” value (10 mM MSG) was 1200 and the “release of intracellular calcium, Control cells (no T1R1/T1R3), meas. 2” value (10 mM MSG) was 1030.

Reference: patent publication US8795977B2, “Method for screening a potential modulator compound of a taste receptor” (Conopco, Inc., priority 2009, dated 2014)
